Reference: patent US20250230193A1, “CYCLIC COMPOUND HAVING SELECTIVE KRAS INHIBITORY EFFECT ON HRAS AND NRAS” (CHUGAI SEIYAKU KABUSHIKI KAISHA, priority 2022, published 2025)

How the values were obtained:
[1] = biological target: GDP-bound HRAS wild-type protein (Homo sapiens, UniProt P01112); assay: Binding to HRAS by surface plasmon resonance (SPR), Single Cycle Kinetics; conditions: SPR; KD ratio class
[2] = tested on: human lung cancer strain NCI-H441; assay: cells; conditions: NCI-H441, 96 h, read-out: NCI-H441 IC50 (nM)
[3] = biological target: GDP-bound NRAS wild-type protein (Homo sapiens, UniProt P01111); assay: Binding to NRAS by surface plasmon resonance (SPR), Single Cycle Kinetics; conditions: SPR; KD ratio class
Chain of GDP-bound NRAS wild-type protein (P01111 whole entry): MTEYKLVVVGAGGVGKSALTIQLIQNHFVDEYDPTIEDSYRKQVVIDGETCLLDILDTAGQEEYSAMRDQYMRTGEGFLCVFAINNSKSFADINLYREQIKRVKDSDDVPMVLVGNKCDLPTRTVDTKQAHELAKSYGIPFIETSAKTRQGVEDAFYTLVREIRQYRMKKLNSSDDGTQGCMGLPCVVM

Chain of GDP-bound HRAS wild-type protein (P01112 whole entry): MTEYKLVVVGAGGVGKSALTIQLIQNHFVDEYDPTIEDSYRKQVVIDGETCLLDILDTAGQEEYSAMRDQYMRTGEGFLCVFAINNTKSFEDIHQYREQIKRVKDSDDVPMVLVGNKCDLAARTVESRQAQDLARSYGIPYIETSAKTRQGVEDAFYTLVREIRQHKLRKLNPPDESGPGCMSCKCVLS

| SMILES | HRAS/KRAS (ratio of KD value for GDP-bound HRAS wild-type protein to KD value for KRAS) [1] | IC50 [2] [nM] | NRAS/KRAS (ratio of KD value for GDP-bound NRAS wild-type protein to KD value for KRAS) [3] |
| --- | --- | --- | --- |
| CCO[C@@H]1C[C@H]2C(=O)NC3(CCC3)C(=O)N(C)[C@@H](C3CCCC3)C(=O)N(C)[C@H](C)CC(=O)N(C)[C@@H](CC(C)C)C(=O)N[C@@H]([C@@H](C)CC)C(=O)N(C)CC(=O)N(C)[C@H]3C/C=C\CCN(C3=O)[C@@H](Cc3ccc(C)cc3)C(=O)N(C)CC(=O)N[C@@H](CCc3cc(F)c(C(F)(F)F)c(F)c3)C(=O)N2C1 [PP1417] | B (a compound having 3 or more and less than 10 is denoted as B) | 18.4 | B (a compound having 3 or more and less than 10 is denoted as B) |
| CCO[C@@H]1C[C@H]2C(=O)NC3(CCC3)C(=O)N(C)[C@@H](C3CCCC3)C(=O)N(C)[C@H](C(=O)N3CCOCC3)CC(=O)N(C)[C@@H](CC3CCCCC3)C(=O)N[C@@H]([C@@H](C)CC)C(=O)N(C)CC(=O)N(C)[C@H]3C/C=C\CCN(C3=O)[C@@H](Cc3ccc(C(F)(F)F)cc3)C(=O)N(C)CC(=O)N[C@@H](CCc3cc(F)c(C(F)(F)F)c(F)c3)C(=O)N2C1 [PP1418] | A (a compound having 10 or more and less than 20 is denoted as A) | 29.9 | AA (a compound having 20 or more is denoted as AA) |
| CCO[C@@H]1C[C@H]2C(=O)NC3(CCC3)C(=O)N(C)[C@@H](C3CCCC3)C(=O)N(C)[C@H](C(=O)N3CCCC3)CC(=O)N(C)[C@@H](CC3CCCCC3)C(=O)N[C@@H]([C@@H](C)CC)C(=O)N(C)CC(=O)N(C)[C@H]3C/C=C\CCN(C3=O)[C@@H](Cc3ccc(C(F)(F)F)cc3)C(=O)N(C)CC(=O)N[C@@H](CCc3cc(F)c(C(F)(F)F)c(F)c3)C(=O)N2C1 [PP1419] | A (a compound having 10 or more and less than 20 is denoted as A) | 40.4 | AA (a compound having 20 or more is denoted as AA) |
| CCO[C@@H]1C[C@H]2C(=O)NC3(CCC3)C(=O)N(C)[C@@H](C3CCCC3)C(=O)N(C)[C@H](C(=O)N3CCOCC3)CC(=O)N(C)[C@@H](CC3CCCCC3)C(=O)N[C@@H]([C@@H](C)CC)C(=O)N(C)CC(=O)N(C)[C@H]3C/C=C\CCN(C3=O)[C@@H](Cc3ccc(C)cc3)C(=O)N(C)CC(=O)N[C@@H](CCc3cc(F)c(C(F)(F)F)c(F)c3)C(=O)N2C1 [PP1420] | A (a compound having 10 or more and less than 20 is denoted as A) | 31.4 | A (a compound having 10 or more and less than 20 is denoted as A) |
| CCO[C@@H]1C[C@H]2C(=O)NC3(CCC3)C(=O)N(C)[C@@H](C3CCCC3)C(=O)N(C)[C@H](C(=O)N3CCOCC3)CC(=O)N(C)[C@@H](CC3CCC3)C(=O)N[C@@H]([C@@H](C)CC)C(=O)N(C)CC(=O)N(C)[C@H]3C/C=C\CCN(C3=O)[C@@H](Cc3ccc(C(F)(F)F)cc3)C(=O)N(C)CC(=O)N[C@@H](CCc3cc(F)c(C(F)(F)F)c(F)c3)C(=O)N2C1 [PP1422] | A (a compound having 10 or more and less than 20 is denoted as A) | 14.1 | AA (a compound having 20 or more is denoted as AA) |
| CCO[C@@H]1C[C@H]2C(=O)NC3(CCC3)C(=O)N(C)[C@@H](C3CCCC3)C(=O)N(C)[C@H](C(=O)N3CCOCC3)CC(=O)N(C)[C@@H](CC3CCC3)C(=O)N[C@@H]([C@@H](C)CC)C(=O)N(C)CC(=O)N(C)[C@H]3C/C=C\CCN(C3=O)[C@@H](Cc3ccc(C)cc3)C(=O)N(C)CC(=O)N[C@@H](CCc3cc(F)c(C(F)(F)F)c(F)c3)C(=O)N2C1 [PP1424] | A (a compound having 10 or more and less than 20 is denoted as A) | 26.3 | A (a compound having 10 or more and less than 20 is denoted as A) |
| CCO[C@@H]1C[C@H]2C(=O)NC3(CCC3)C(=O)N(C)[C@@H](C3CCCC3)C(=O)N(C)[C@H](C(=O)N3CCCC3)CC(=O)N(C)[C@@H](CC3CCC3)C(=O)N[C@@H]([C@@H](C)CC)C(=O)N(C)CC(=O)N(C)[C@H]3C/C=C\CCN(C3=O)[C@@H](Cc3ccc(C)cc3)C(=O)N(C)CC(=O)N[C@@H](CCc3cc(F)c(C(F)(F)F)c(F)c3)C(=O)N2C1 [PP1425] | B (a compound having 3 or more and less than 10 is denoted as B) | 20.2 | A (a compound having 10 or more and less than 20 is denoted as A) |
| CCO[C@@H]1C[C@H]2C(=O)NC3(CCC3)C(=O)N(C)[C@@H](C3CCCC3)C(=O)N(C)[C@H](C(=O)N(C)C)CC(=O)N(C)[C@@H](CC3CC3)C(=O)N[C@@H]([C@@H](C)CC)C(=O)N(C)CC(=O)N(C)[C@H]3C/C=C\CCN(C3=O)[C@@H](Cc3ccc(F)cc3)C(=O)N(C)CC(=O)N[C@@H](CCc3ccc4sccc4c3)C(=O)N2C1 [PP1426] | B (a compound having 3 or more and less than 10 is denoted as B) | 475 | A (a compound having 10 or more and less than 20 is denoted as A) |
| CCO[C@@H]1C[C@H]2C(=O)NC3(CCC3)C(=O)N(C)[C@@H](C3CCCC3)C(=O)N(C)[C@H](C(=O)N(C)C)CC(=O)N(C)[C@@H](CC(C)C)C(=O)N[C@@H]([C@@H](C)CC)C(=O)N(C)CC(=O)N(C)[C@H]3C/C=C\CCN(C3=O)[C@@H](Cc3ccc(F)cc3)C(=O)N(C)CC(=O)N[C@@H](CCc3ccc4sccc4c3)C(=O)N2C1 [PP1427] | B (a compound having 3 or more and less than 10 is denoted as B) | 465 | A (a compound having 10 or more and less than 20 is denoted as A) |
| CCO[C@@H]1C[C@H]2C(=O)NC3(CCC3)C(=O)N(C)[C@@H](C(CC)CC)C(=O)N(C)[C@H](C(=O)N(C)C)CC(=O)N(C)[C@@H](CC3CC3)C(=O)N[C@@H]([C@@H](C)CC)C(=O)N(C)CC(=O)N(C)[C@H]3C/C=C\CCN(C3=O)[C@@H](CC3CCCCC3)C(=O)N(C)CC(=O)N[C@@H](CCc3cc(F)c(C(F)(F)F)c(F)c3)C(=O)N2C1 [PP1428] | A (a compound having 10 or more and less than 20 is denoted as A) | 38.8 | AA (a compound having 20 or more is denoted as AA) |
| CCO[C@@H]1C[C@H]2C(=O)NC3(CCC3)C(=O)N(C)[C@@H](C(CC)CC)C(=O)N(C)[C@H](C(=O)N(C)C)CC(=O)N(C)[C@@H](CC3CC3)C(=O)N[C@@H]([C@@H](C)CC)C(=O)N(C)CC(=O)N(C)[C@H]3C/C=C\CCN(C3=O)[C@@H](CC3CCC(F)(F)CC3)C(=O)N(C)CC(=O)N[C@@H](CCc3cc(F)c(C(F)(F)F)c(F)c3)C(=O)N2C1 [PP1429] | A (a compound having 10 or more and less than 20 is denoted as A) | 38.7 | AA (a compound having 20 or more is denoted as AA) |
